Source: patent publication USRE30548E, “Peptides which effect release of hormones” (The Salk Institute for Biological Studies, priority 1979, dated 1981)
Bridge positions count the residues as written; N and C are the ends. Ends that are not written are not given here.

How the values were obtained:
glucagon secretion = test: In vivo bioassay: inhibition of glucagon release in anesthetized rats (portal vein plasma); design: species or system Sprague-Dawley-CD rats; conditions: in vivo rat, via external jugular vein; somatostatin = 100
Method: (§1) An investigation of the effect of somatostatin, dihydrosomatostatin, (as controls) and the peptides of the invention to inhibit the release of glucagon and insulin was made as follows:
(§2) In vivo Bioassay: Male Sprague-Dawley-CD rats weighing 180-200 g housed in temperature and humidity controlled quarters with 14h light and 10h dark (light 0700-[…]) were used in all experiments. Animals were fed a standard ration and tap water ad libitum. Experiments were carried out at least 5 days after arrival of rats from the supplier between the hours 1400 to 1600. After ether anesthesia, peptides or saline were administered in a volume of 0.2 ml. via the external jugular vein. Animals remained anesthetized until the time of blood collection from the portal vein. […]
(§3) Plasma was stored at -20° C. for insulin and glucagon determinations. Insulin levels were determined by the method of Herbert et al, J. […]. Endocr. […] Glucagon was determined by the method of Faloona and Unger, in Jaffe et al ed., Methods of Hormone Radioimmunoassay, Academic Press, New York, 1974, p. […] was determined by the glucose oxidase method, utilizing a Beckman Glucose Analyzer.
(§4) All experiments were carried on in a randomized block design. Following analysis of variance difference between treatments were determined by the multiple range tests of Dunnett and Duncan. Potency values were calculated from four or six point bioassays.

insulin secretion = test: In vivo bioassay: inhibition of insulin release in anesthetized rats (portal vein plasma); design: species or system Sprague-Dawley-CD rats; conditions: in vivo rat, via external jugular vein; somatostatin = 100
Method: as §1, §2, §3, §4

Q: How did the “percent effectiveness for inhibiting secretion of Glucagon, somatostatin taken as the base” value (glucagon secretion) turn out when “somatostatin (AGCKNFFWKTFTSC; disulfide 3-14; ends not checked; UniProt P61278 103-116, looked up)” was run?
A: Its value is 100%.

Q: What about the “percent effectiveness for inhibiting secretion of Insulin, somatostatin taken as the base” value (insulin secretion) of the same substance?
A: Its value is 100%.
